Experimental data published in patent publication US9834550B2, “Pyridopyrimidinone compounds for modulating the catalytic activity of histone lysine demethylases (KDMs)” (Dong-A Socio Holdings Co., Ltd., priority 2014, dated 2017).

These compounds were tested against T1, Recombinant human JARID1B/KDM5B (Homo sapiens, UniProt Q9UGL1) (assay: LANCE Ultra TR-FRET demethylase assay with FLAG-tagged JARID1B). Settings: 100 nM compound; 500 nM biotinylated H3K4me3 peptide substrate.
T1 construct: purchased Active Motif 31432; host or cells: Sf9 insect cells
Format: biochemical
Procedure, shortened: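 Sf9-expressed N-FLAG full-length JARID1B (10–30 nM) preincubated 5 min with compound at 20, 1 or 0.1 uM (1% DMSO), then 500 nM biotin-H3K4me3 peptide, 500 uM 2-OG, 25 uM Fe(II), 2 mM ascorbate added; 30 min at room temperature in Hepes pH 7.5. H3K4me2/1 product read by TR-FRET 665/590 ratio.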

T1 sequence (Q9UGL1 whole entry): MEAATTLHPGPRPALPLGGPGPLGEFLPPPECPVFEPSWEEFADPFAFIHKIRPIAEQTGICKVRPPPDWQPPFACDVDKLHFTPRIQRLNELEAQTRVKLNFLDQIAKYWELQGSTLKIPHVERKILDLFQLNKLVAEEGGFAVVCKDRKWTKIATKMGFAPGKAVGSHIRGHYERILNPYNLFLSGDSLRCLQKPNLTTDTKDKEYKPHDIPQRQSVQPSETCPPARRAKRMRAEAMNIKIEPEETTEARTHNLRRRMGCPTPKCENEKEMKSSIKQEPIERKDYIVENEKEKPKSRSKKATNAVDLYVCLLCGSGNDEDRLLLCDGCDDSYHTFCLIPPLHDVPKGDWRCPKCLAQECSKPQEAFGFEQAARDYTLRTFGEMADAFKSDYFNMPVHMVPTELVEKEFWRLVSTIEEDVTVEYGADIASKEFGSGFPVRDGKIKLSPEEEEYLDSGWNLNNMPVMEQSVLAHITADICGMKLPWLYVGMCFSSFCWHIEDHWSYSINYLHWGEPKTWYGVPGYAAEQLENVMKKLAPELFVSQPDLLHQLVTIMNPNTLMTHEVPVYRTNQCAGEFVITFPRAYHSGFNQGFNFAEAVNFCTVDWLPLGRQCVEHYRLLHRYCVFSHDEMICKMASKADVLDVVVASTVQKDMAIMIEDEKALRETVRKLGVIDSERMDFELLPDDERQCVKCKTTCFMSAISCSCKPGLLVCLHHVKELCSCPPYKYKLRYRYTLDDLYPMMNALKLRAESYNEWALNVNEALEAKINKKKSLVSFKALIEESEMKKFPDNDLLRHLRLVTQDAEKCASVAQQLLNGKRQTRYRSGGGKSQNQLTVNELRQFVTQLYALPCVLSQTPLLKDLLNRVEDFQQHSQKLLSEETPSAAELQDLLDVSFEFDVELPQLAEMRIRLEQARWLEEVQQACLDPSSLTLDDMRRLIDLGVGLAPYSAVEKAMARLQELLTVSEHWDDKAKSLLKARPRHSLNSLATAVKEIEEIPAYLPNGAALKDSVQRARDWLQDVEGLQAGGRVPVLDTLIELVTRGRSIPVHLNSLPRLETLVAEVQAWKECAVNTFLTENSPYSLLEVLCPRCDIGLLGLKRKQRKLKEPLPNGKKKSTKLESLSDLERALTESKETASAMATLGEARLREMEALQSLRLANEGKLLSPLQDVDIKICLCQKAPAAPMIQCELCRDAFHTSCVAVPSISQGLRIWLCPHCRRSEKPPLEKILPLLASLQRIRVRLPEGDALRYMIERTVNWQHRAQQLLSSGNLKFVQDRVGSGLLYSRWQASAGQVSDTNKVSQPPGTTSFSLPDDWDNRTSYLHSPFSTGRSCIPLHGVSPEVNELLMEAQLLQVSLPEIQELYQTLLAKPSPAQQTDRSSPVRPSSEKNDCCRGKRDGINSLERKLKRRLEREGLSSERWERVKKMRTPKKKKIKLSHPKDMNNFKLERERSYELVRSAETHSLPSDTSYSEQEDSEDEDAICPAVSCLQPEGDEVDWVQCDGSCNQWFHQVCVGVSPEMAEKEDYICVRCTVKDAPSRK

inhibition at 0.1 µM | Structure (SMILES)
20 to 50% | O=c1[nH]c(COc2ccc(F)cc2F)nc2c(CNCC3CCNCC3)nccc12 [Example 124, 2-((2,4-difluorophenoxy)methyl)-8-(((piperidin-4-ylmethyl)amino)methyl)pyrido[3,4-d]pyrimidin-4(3H)-one]
20 to 50% | O=c1[nH]c(COc2cccnc2)nc2c(CNCC3CCN(Cc4ccccc4)CC3)nccc12 [Example 109, 8-((((1-benzylpiperidin-4-yl)methyl)amino)methyl)-2-((pyridin-3-yloxy)methyl)pyrido[3,4-d]pyrimidin-4(3H)-one]
20 to 50% | CCc1ccc(OCc2nc3c(CNCC4CCNCC4)nccc3c(=O)[nH]2)cc1 [Example 135, 2-((4-ethylphenoxy)methyl)-8-(((piperidin-4-ylmethyl)amino)methyl)pyrido[3,4-d]pyrimidin-4(3H)-one]
20 to 50% | N#Cc1ccccc1OCc1nc2c(CNCC3CCNCC3)nccc2c(=O)[nH]1 [Example 128, 2-((4-oxo-8-(((piperidin-4-ylmethyl)amino)methyl)-3,4-dihydropyrido[3,4-d]pyrimidin-2-yl)methoxy)benzonitrile]
20 to 50% | CC(Oc1ccc(Cc2ccccc2)cc1)c1nc2c(CNC[C@H]3CCNC3)nccc2c(=O)[nH]1 (stereo partly drawn) [Example 213, 2-(1-(4-benzylphenoxy)ethyl)-8-(((((S)-pyrrolidin-3-yl)methyl)amino)methyl)pyrido[3,4-d]pyrimidin-4(3H)-one]
< 20% | O=c1[nH]c(C2CCCC2)nc2c(CNCC3CCNCC3)nccc12 [Example 191, 2-cyclopentyl-8-(((piperidin-4-ylmethyl)amino)methyl)pyrido[3,4-d]pyrimidin-4(3H)-one]
20 to 50% | C[C@@H](Oc1ccc(F)c(Cl)c1)c1nc2c(CNCC3CCN(C)CC3)nccc2c(=O)[nH]1 [Example 218, (R)-2-(1-(3-chloro-4-fluorophenoxy)ethyl)-8-((((1-methylpiperidin-4-yl)methyl)amino)methyl)pyrido[3,4-d]pyrimidin-4(3H)-one]
> 50% | O=C(CNCc1nccc2c(=O)[nH]c(COc3ccc(F)c(Cl)c3)nc12)N[C@@H]1CCCNC1 [Example 230, (R)-2-(((2-((3-chloro-4-fluorophenoxy)methyl)-4-oxo-3,4-dihydropyrido[3,4-d]pyrimidin-8-yl)methyl)amino)-N-(piperidin-3-yl)acetamide]
> 50% | O=c1[nH]c(COc2ccccc2Cl)nc2c(CNCC3CCN(Cc4ccccc4)CC3)nccc12 [Example 105, 8-((((1-benzylpiperidin-4-yl)methyl)amino)methyl)-2-((2-chlorophenoxy)methyl)pyrido[3,4-d]pyrimidin-4(3H)-one]
20 to 50% | CN1CCC(CNCc2nccc3c(=O)[nH]c(C4Cc5ccccc5O4)nc23)CC1 (stereo not drawn) [Example 198, 2-(2,3-dihydrobenzofuran-2-yl)-8-((((1-methylpiperidin-4-yl)methyl)amino)methyl)pyrido[3,4-d]pyrimidin-4(3H)-one]
20 to 50% | O=c1[nH]c(COc2ccc(Cl)c(F)c2)nc2c(CNCC3CCNCC3)nccc12 [Example 127, 2-((4-chloro-3-fluorophenoxy)methyl)-8-(((piperidin-4-ylmethyl)amino)methyl)pyrido[3,4-d]pyrimidin-4(3H)-one]
> 50% | O=c1[nH]c(COc2ccc(Cl)cc2)nc2c(CNCC3CCN(Cc4ccccc4)CC3)nccc12 [Example 107, 8-((((1-benzylpiperidin-4-yl)methyl)amino)methyl)-2-((4-chlorophenoxy)methyl)pyrido[3,4-d]pyrimidin-4(3H)-one]
> 50% | CCN(CCN(C)C)C(=O)CNCc1nccc2c(=O)[nH]c(COc3ccc(F)c(Cl)c3)nc12 [Example 221, 2-(((2-((3-chloro-4-fluorophenoxy)methyl)-4-oxo-3,4-dihydropyrido[3,4-d]pyrimidin-8-yl)methyl)amino)-N-(2-(dimethylamino)ethyl)-N-ethylacetamide]
20 to 50% | Cc1cc(CNCc2nccc3c(=O)[nH]c(COc4ccc(F)c(Cl)c4)nc23)on1 [Example 177, 2-((3-chloro-4-fluorophenoxy)methyl)-8-((((3-methylisoxazol-5-yl)methyl)amino)methyl)pyrido[3,4-d]pyrimidin-4(3H)-one]
> 50% | CC(C)N1CCC(CNCc2nccc3c(=O)[nH]c(COc4ccc(F)c(Cl)c4)nc23)CC1 [Example 168, 2-((3-chloro-4-fluorophenoxy)methyl)-8-((((1-isopropylpiperidin-4-yl)methyl)amino)methyl)pyrido[3,4-d]pyrimidin-4(3H)-one]
> 50% | O=c1[nH]c(COc2ccc(Cc3ccccc3)cc2)nc2c(CNCC3CCOCC3)nccc12 [Example 149, 2-((4-benzylphenoxy)methyl)-8-((((tetrahydro-2H-pyran-4-yl)methyl)amino)methyl)pyrido[3,4-d]pyrimidin-4(3H)-one]
20 to 50% | Cc1nccn1CCNCc1nccc2c(=O)[nH]c(COc3ccc(F)c(Cl)c3)nc12 [Example 175, 2-((3-chloro-4-fluorophenoxy)methyl)-8-(((2-(2-methyl-1H-imidazol-1-yl)ethyl)amino)methyl)pyrido[3,4-d]pyrimidin-4(3H)-one]
> 50% | O=c1[nH]c(COc2ccc(F)c(Cl)c2)nc2c(CNC[C@H]3CCNC3)nccc12 [Example 158, (S)-2-((3-chloro-4-fluorophenoxy)methyl)-8-(((pyrrolidin-3-ylmethyl)amino)methyl)pyrido[3,4-d]pyrimidin-4(3H)-one]
20 to 50% | O=c1[nH]c(COc2ccccc2Br)nc2c(CNCC3CCNCC3)nccc12 [Example 117, 2-((2-bromophenoxy)methyl)-8-(((piperidin-4-ylmethyl)amino)methyl)pyrido[3,4-d]pyrimidin-4(3H)-one]
> 50% | O=c1[nH]c(COc2ccc(Cc3ccccc3)cc2)nc2c(CNCC3CNC3)nccc12 [Example 147, 8-(((azetidin-3-ylmethyl)amino)methyl)-2-((4-benzylphenoxy)methyl)pyrido[3,4-d]pyrimidin-4(3H)-one]
> 50% | N[C@H]1CCN(C(=O)CNCc2nccc3c(=O)[nH]c(COc4ccc(F)c(Cl)c4)nc23)C1 [Example 229, (S)-8-(((2-(3-aminopyrrolidin-1-yl)-2-oxoethyl)amino)methyl)-2-((3-chloro-4-fluorophenoxy)methyl)pyrido[3,4-d]pyrimidin-4(3H)-one]
20 to 50% | O=C(CNCc1nccc2c(=O)[nH]c(COc3ccc(F)c(Cl)c3)nc12)N1CCCC1 [Example 223, 2-((3-chloro-4-fluorophenoxy)methyl)-8-(((2-oxo-2-(pyrrolidin-1-yl)ethyl)amino)methyl)pyrido[3,4-d]pyrimidin-4(3H)-one]
20 to 50% | O=c1[nH]c(COc2ccc(F)c(Cl)c2)nc2c(CNCc3ncccn3)nccc12 [Example 180, 2-((3-chloro-4-fluorophenoxy)methyl)-8-(((pyrimidin-2-ylmethyl)amino)methyl)pyrido[3,4-d]pyrimidin-4(3H)-one]
> 50% | O=c1[nH]c(COc2ccc(F)c(Cl)c2)nc2c(CNCCCn3ccnc3)nccc12 [Example 165, 8-(((3-(1H-imidazol-1-yl)propyl)amino)methyl)-2-((3-chloro-4-fluorophenoxy)methyl)pyrido[3,4-d]pyrimidin-4(3H)-one]
